Laboratory results taken from ChEMBL document CHEMBL1201862, “PubChem BioAssay data set” (2004).
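The compound was tested at five concentrations on cells cultured in 96-well plates, with a 48-hour exposure period. Abbreviation: GI50, concentration required for 50% inhibition of growth.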 Calls of active or inactive are those of the source. Rule as the data show it: active = GI50 up to about 1.1 µM and inactive = higher.

Legend:
Experiment in all cases: inhibition of tumour cell growth, NCI panel, 48 h
786-0 = system: 786-0
A498 = system: A498
A549 = system: A549
ACHN = system: ACHN
CAKI-1 = system: CAKI-1
CCRF-CEM = system: CCRF-CEM
COLO 205 = system: COLO 205
DLD-1 = system: DLD-1
DMS-114 = system: DMS-114
DMS-273 = system: DMS-273
EKVX = system: EKVX
HCT-116 = system: HCT-116
HL-60 = system: HL-60
HOP-62 = system: HOP-62
HOP-92 = system: HOP-92
HT-29 = system: HT-29
IGROV-1 = system: IGROV-1
K562 = system: K562
KM12 = system: KM12
LXFL 529 = system: LXFL 529
M14 = system: M14
M19-MEL = system: M19-MEL
Malme-3M = system: Malme-3M
NCI-H23 = system: NCI-H23
NCI-H460 = system: NCI-H460
NCI-H522 = system: NCI-H522
OVCAR-3 = system: OVCAR-3
OVCAR-4 = system: OVCAR-4
OVCAR-8 = system: OVCAR-8
RXF 393 = system: RXF 393
SF-268 = system: SF-268
SF-295 = system: SF-295
SF-539 = system: SF-539
SK-MEL-28 = system: SK-MEL-28
SK-MEL-2 = system: SK-MEL-2
SK-OV-3 = system: SK-OV-3
SN12C = system: SN12C
SNB-75 = system: SNB-75
SNB-78 = system: SNB-78
SR = system: SR
SW-620 = system: SW-620
TK-10 = system: TK-10
U-251 = system: U-251
UACC-257 = system: UACC-257
UACC-62 = system: UACC-62
XF498 = system: XF498
HCC 2998 = system: HCC 2998
HCT-15 = system: HCT-15
KM-20L2 = system: KM-20L2
LOX IMVI = system: LOX IMVI
MOLT-4 = system: MOLT-4
NCI-H226 = system: NCI-H226
OVCAR-5 = system: OVCAR-5
RPMI-8226 = system: RPMI-8226
SK-MEL-5 = system: SK-MEL-5
SNB-19 = system: SNB-19
UO-31 = system: UO-31

For `N/C(=N\O)N/N=C/c1ccc(C(F)(F)F)cc1`, the GI50 (786-0) was 9.73 µM (inactive), the GI50 (A498) was 17.1 µM (inactive) and the GI50 (A549) was 5.15 µM (inactive). For the same compound, the GI50 (ACHN) was 4.61 µM (inactive), the GI50 (CAKI-1) was 6.46 µM (inactive) and the GI50 (CCRF-CEM) was 9.68 µM (inactive). For the same compound, the GI50 (COLO 205) was 17.9 µM (inactive), the GI50 (DLD-1) was 24.7 µM (inactive) and the GI50 (DMS-114) was 18.4 µM (inactive). For the same compound, the GI50 (DMS-273) was 16.6 µM (inactive), the GI50 (EKVX) was 4.23 µM (inactive) and the GI50 (HCT-116) was 32.9 µM (inactive). The GI50 (HL-60) was 10.9 µM (inactive), the GI50 (HOP-62) was 15.5 µM (inactive) and the GI50 (HOP-92) was 18.4 µM (inactive). For the same compound, the GI50 (HT-29) was 17.9 µM (inactive), the GI50 (IGROV-1) was 7.41 µM (inactive) and the GI50 (K562) was 16.9 µM (inactive). For the same compound, the GI50 (KM12) was 13.1 µM (inactive), the GI50 (LXFL 529) was 10.9 µM (inactive) and the GI50 (M14) was 10.6 µM (inactive). For the same compound, the GI50 (M19-MEL) was 35.2 µM (inactive), the GI50 (Malme-3M) was 16.7 µM (inactive) and the GI50 (NCI-H23) was 15 µM (inactive). The GI50 (NCI-H460) was 5.04 µM (inactive), the GI50 (NCI-H522) was 10.3 µM (inactive) and the GI50 (OVCAR-3) was 13.5 µM (inactive). For the same compound, the GI50 (OVCAR-4) was 4.86 µM (inactive), the GI50 (OVCAR-8) was 13.4 µM (inactive) and the GI50 (RXF 393) was 29.9 µM (inactive). For the same compound, the GI50 (SF-268) was 6.61 µM (inactive), the GI50 (SF-295) was 26 µM (inactive) and the GI50 (SF-539) was 15.8 µM (inactive). The GI50 (SK-MEL-28) was 62.4 µM (inactive), the GI50 (SK-MEL-2) was 18.2 µM (inactive) and the GI50 (SK-OV-3) was 6.98 µM (inactive). The GI50 (SN12C) was 24.7 µM (inactive), the GI50 (SNB-75) was 26.7 µM (inactive) and the GI50 (SNB-78) was 39.4 µM (inactive). For the same compound, the GI50 (SR) was 6.85 µM (inactive), the GI50 (SW-620) was 31 µM (inactive) and the GI50 (TK-10) was 23.9 µM (inactive). For the same compound, the GI50 (U-251) was 16.8 µM (inactive), the GI50 (UACC-257) was 32.2 µM (inactive) and the GI50 (UACC-62) was 4.66 µM (inactive). For the same compound, the GI50 (XF498) was 13.8 µM (inactive).

`Cc1ccc(S(=O)(=O)C2=c3nc4ccccc4cc3=C3C(=O)c4ccccc4C(=O)C32)cc1` (centres undefined) was tested, and the GI50 (786-0) was > 100 µM (inactive), the GI50 (A498) was 35 µM (inactive) and the GI50 (A549) was > 100 µM (inactive). For the same compound, the GI50 (ACHN) was > 100 µM (inactive), the GI50 (CAKI-1) was > 100 µM (inactive) and the GI50 (CCRF-CEM) was > 100 µM (inactive). The GI50 (COLO 205) was > 100 µM (inactive), the GI50 (DLD-1) was > 100 µM (inactive) and the GI50 (DMS-114) was > 100 µM (inactive). For the same compound, the GI50 (DMS-273) was > 100 µM (inactive), the GI50 (EKVX) was > 100 µM (inactive) and the GI50 (HCC 2998) was > 100 µM (inactive). For the same compound, the GI50 (HCT-116) was > 100 µM (inactive), the GI50 (HCT-15) was greater than 100 µM and the GI50 (HL-60) was > 100 µM (inactive). The GI50 (HOP-62) was > 100 µM (inactive), the GI50 (HOP-92) was > 100 µM (inactive) and the GI50 (IGROV-1) was > 100 µM (inactive). For the same compound, the GI50 (K562) was > 100 µM (inactive), the GI50 (KM-20L2) was > 100 µM (inactive) and the GI50 (KM12) was > 100 µM (inactive). The GI50 (LOX IMVI) was > 100 µM (inactive), the GI50 (LXFL 529) was > 100 µM (inactive) and the GI50 (M14) was > 100 µM (inactive). For the same compound, the GI50 (M19-MEL) was > 100 µM (inactive), the GI50 (MOLT-4) was > 100 µM (inactive) and the GI50 (Malme-3M) was > 100 µM (inactive). For the same compound, the GI50 (NCI-H226) was > 100 µM (inactive), the GI50 (NCI-H23) was > 100 µM (inactive) and the GI50 (NCI-H460) was > 100 µM (inactive). The GI50 (NCI-H522) was > 100 µM (inactive), the GI50 (OVCAR-3) was > 100 µM (inactive) and the GI50 (OVCAR-4) was > 100 µM (inactive). For the same compound, the GI50 (OVCAR-5) was > 100 µM (inactive), the GI50 (OVCAR-8) was > 100 µM (inactive) and the GI50 (RPMI-8226) was > 100 µM (inactive). The GI50 (SF-268) was > 100 µM (inactive), the GI50 (SF-539) was > 100 µM (inactive) and the GI50 (SK-MEL-28) was > 100 µM (inactive). For the same compound, the GI50 (SK-MEL-2) was > 100 µM (inactive), the GI50 (SK-MEL-5) was 63.2 µM (inactive) and the GI50 (SK-OV-3) was 0.394 µM (active). For the same compound, the GI50 (SN12C) was > 100 µM (inactive), the GI50 (SNB-19) was > 100 µM (inactive) and the GI50 (SNB-75) was 43.3 µM (inactive). The GI50 (SR) was > 100 µM (inactive), the GI50 (SW-620) was > 100 µM (inactive) and the GI50 (TK-10) was > 100 µM (inactive). For the same compound, the GI50 (U-251) was > 100 µM (inactive), the GI50 (UACC-257) was > 100 µM (inactive) and the GI50 (UACC-62) was > 100 µM (inactive). The GI50 (UO-31) was > 100 µM (inactive) and the GI50 (XF498) was > 100 µM (inactive).
